Target: SARS2 coronavirus 3CL protease (Severe acute respiratory syndrome coronavirus 2, UniProt P0DTD1)
Experiment: SARS2 Coronavirus 3CL Protease Assay (FRET)
Format: biochemical
Conditions: 5 nM protease pre-incubated with compound 30 minutes; 15 uM peptide substrate; 4 h room temperature; read-out: FRET Potency (nM); IC50 values in the SARS2 3CLPro FRET assay
Description: The enzymatic activity of SARS2 coronavirus 3CL protease was determined in a FRET (fluorescence resonance energy transfer)-based assay measuring the cleavage of a peptide substrate by recombinantly expressed and purified enzyme. Cleavage of the peptide SEQ ID NO: 1 (CPC Scientific) by SARS2 3CL protease was measured in reaction buffer (50 mM Hepes pH 7.5, 0.01% Triton X-100, 0.01% BSA, 2 mM DTT). […] Room temperature reactions (4 h) were quenched by addition of a high dose of inhibitor and read on an appropriate plate reader (excitation wavelength=495 nm, emission wavelength=520 nm). Data were analyzed by a standard 4 parameter fit to determine IC50 values.

Structure (SMILES)	IC50
CNC(=O)C(=O)[C@H](CCC(C)F)NC(=O)c1cc(Cl)ccc1NC(=O)OC (single isomer, unassigned) [Example 6A]	25.8 nM
CNC(=O)C(=O)[C@H](CCC(C)F)NC(=O)c1cc(Cl)ccc1NC(=O)OC (single isomer, unassigned) [Example 6B]	154 nM
CNC(=O)C(=O)[C@H](CCC(C)F)NC(=O)c1cc(Cl)ccc1NC(=O)OC (single isomer, unassigned) [Example 6C]	13.6 nM
CNC(=O)C(=O)[C@H](CCC(C)F)NC(=O)c1cc(Cl)ccc1NC(=O)OC (single isomer, unassigned) [Example 6D]	702 nM
CNC(=O)C(=O)[C@H](CCC(C)(F)F)NC(=O)c1cc(Cl)ccc1NC(=O)C1CC12CC2 (single isomer, unassigned) [Example 19]	10.5 nM
CNC(=O)C(=O)[C@H](CCC(C)(F)F)NC(=O)c1cc(Cl)ccc1NC(=O)C1CC12CC2 (single isomer, unassigned) [Example 33]	21.5 nM
CNC(=O)C(=O)[C@H](CCC(C)(F)F)NC(=O)c1cc(Cl)ccc1NC(=O)c1ccnc(C(F)(F)F)c1 [Example 1, (S)—N-(4-chloro-2-((6,6-difluoro-1-(methylamino)-1,2-dioxoheptan-3-yl)carbamoyl)phenyl)-2-(trifluoromethyl)isonicotinamide]	8.1 nM
CNC(=O)C(=O)[C@H](CCC(C)(F)F)NC(=O)c1cc(Cl)cnc1NC(=O)C12CC(C(F)(F)F)(C1)C2 [Example 2, (S)-5-chloro-N-(6,6-difluoro-1-(methylamino)-1,2-dioxoheptan-3-yl)-2-(3-(trifluoromethyl)bicyclo[1.1.1]pentane-1-carboxamido)nicotinamide]	11.6 nM
COC(=O)N[C@H](C(=O)Nc1ccc(Cl)cc1C(=O)N[C@@H](CCC(C)(F)F)C(=O)C(=O)NC1CC1)C(C)(C)C [Example 3, Methyl ((S)-1-((4-chloro-2-(((S)-1-(cyclopropylamino)-6,6-difluoro-1,2-dioxoheptan-3-yl)carbamoyl)phenyl)amino)-3,3-dimethyl-1-oxobutan-2-yl)carbamate]	24 nM
CNC(=O)C(=O)[C@H](CCC(C)(F)F)NC(=O)c1cc(Cl)c(F)cc1NC(=O)CCC(F)(F)F [Example 4, (S)-5-chloro-N-(6,6-difluoro-1-(methylamino)-1,2-dioxoheptan-3-yl)-4-fluoro-2-(4,4,4-trifluorobutanamido)benzamide]	9.9 nM
CC(F)(F)CC[C@H](NC(=O)c1cc(Cl)cnc1NC(=O)c1cccc(C(F)(F)F)c1)C(=O)C(=O)NC1CC1 [Example 5, (S)-5-chloro-N-(1-(cyclopropylamino)-6,6-difluoro-1,2-dioxoheptan-3-yl)-2-(3-(trifluoromethyl)benzamido)nicotinamide]	9.2 nM
CC(F)(F)CC[C@H](NC(=O)c1cc(Cl)ccc1NC(=O)c1ccnc(C(F)(F)F)c1)C(=O)C(N)=O [Example 7, (S)—N-(2-((1-amino-6,6-difluoro-1_2-dioxoheptan-3-yl)carbamoyl)-4-chlorophenyl)-2-(trifluoromethyl)isonicotinamide]	18 nM
CNC(=O)C(=O)[C@H](CCC(C)(F)F)NC(=O)c1cc(Cl)ccc1NC(=O)C(C)c1cscn1 (stereo partly drawn) [Example 8, 5-chloro-N-[(1S)-4,4-difluoro-1-[2-(methylamino)-2-oxo-acetyl]pentyl]-2-(2-thiazol-4-ylpropanoylamino)benzamide]	6.6 nM
CNC(=O)C(=O)[C@H](CCC(C)(F)F)NC(=O)c1cc(Cl)ccc1NC(=O)C1CCc2scnc21 (stereo partly drawn) [Example 9, N-[4-chloro-2-[[(1S)-4,4-difluoro-1-[2-(methylamino)-2-oxo-acetyl]pentyl]carbamoyl]phenyl]-5,6-dihydro-4H-cyclopenta[d]thiazole-4-carboxamide]	7 nM
CNC(=O)C(=O)[C@H](CCC(C)(F)F)NC(=O)c1cc(Cl)ccc1NC(=O)C(C)c1cscn1 (stereo partly drawn) [Example 10, 5-chloro-N-[(1S)-4,4-difluoro-1-[2-(methylamino)-2-oxo-acetyl]pentyl]-2-(2-thiazol-4-ylpropanoylamino)benzamide]	7 nM
CNC(=O)C(=O)[C@H](CCC(C)(F)F)NC(=O)c1cc(Cl)ccc1NC(=O)C1CC12CCOCC2 (stereo partly drawn) [Example 11, N-[4-chloro-2-[[(1S)-4,4-difluoro-1-[2-(methylamino)-2-oxo-acetyl]pentyl]carbamoyl]phenyl]-6-oxaspiro[2.5]octane-2-carboxamide]	7.7 nM

Structure (SMILES)	IC50
CC(F)(F)CC[C@H](NC(=O)c1cc(Cl)ccc1NC(=O)c1cccc(C(F)(F)F)c1)C(=O)C(=O)NC1CC1 [Example 12, 5-chloro-N-[(1S)-1-[2-(cyclopropylamino)-2-oxo-acetyl]-4.4-difluoro-pentyl]-2-[[3-(trifluoromethyl)benzoyl]amino]benzamide]	7.9 nM
CNC(=O)C(=O)[C@H](CCC(C)(F)F)NC(=O)c1cc(Cl)ccc1NC(=O)C1CC(F)(F)C1 [Example 13, 5-chloro-2-[(3,3-difluorocyclobutanecarbonyl)amino]-N-[(1S)-4,4-difluoro-1-[2-(methylamino)-2-oxo-acetyl]pentyl]benzamide]	8 nM
CNC(=O)C(=O)[C@H](CCC(C)(F)F)NC(=O)c1cc(Cl)ccc1NC(=O)CCC(F)(F)F [Example 14, 5-chloro-N-[(1S)-4,4-difluoro-1-[2-(methylamino)-2-oxo-acetyl]pentyl]-2-(4,4,4-trifluorobutanoylamino) benzamide]	8.2 nM
CNC(=O)C(=O)[C@H](CCC(C)(F)F)NC(=O)c1cc(Cl)ccc1NC(=O)C1CCc2scnc21 (stereo partly drawn) [Example 15, N-[4-chloro-2-[[(1S)-4,4-difluoro-1-[2-(methylamino)-2-oxo-acetyl]pentyl]carbamoyl]phenyl]-5,6-dihydro-4H-cyclopenta[d]thiazole-4-carboxamide]	8.4 nM
CNC(=O)C(=O)[C@H](CCC(C)(F)F)NC(=O)c1cc(Cl)ccc1NC(=O)C1CCOCC1 [Example 16, N-[4-chloro-2-[[(1S)-4,4-difluoro-1-[2-(methylamino)-2-oxo-acetyl]pentyl]carbamoyl]phenyl] tetrahydropyran-4-carboxamide]	8.5 nM
CNC(=O)C(=O)[C@H](CCC(C)(F)F)NC(=O)c1cc(Cl)ccc1NC(=O)c1cccc(C(F)(F)F)n1 [Example 17, N-[4-chloro-2-[[(1S)-4,4-difluoro-1-[2-(methylamino)-2-oxo-acetyl]pentyl]carbamoyl]phenyl]-6-(trifluoromethyl)pyridine-2-carboxamide]	8.7 nM
CNC(=O)C(=O)[C@H](CCC(C)(F)F)NC(=O)c1cc(F)cnc1NC(=O)c1cccc(C(F)(F)F)c1 [Example 18, N-[(1S)-4,4-difluoro-1-[2-(methylamino)-2-oxo-acetyl]pentyl]-5-fluoro-2-[[3-(trifluoromethyl)benzoyl]amino]pyridine-3-carboxamide]	9.8 nM
CNC(=O)C(=O)[C@H](CCC(C)(F)F)NC(=O)c1cc(Cl)ccc1NC(=O)C1(C(F)(F)F)CC1 [Example 20, 5-chloro-N-[(1S)-4,4-difluoro-1-[2-(methylamino)-2-oxo-acetyl]pentyl]-2-[[1-(trifluoromethyl)cyclopropane-carbonyl]amino]benzamide]	11.6 nM
CNC(=O)C(=O)[C@H](CCC(C)(F)F)NC(=O)c1cc(Cl)cnc1NC(=O)c1cccc(C(F)(F)F)c1 [Example 21, 5-chloro-N-[(1S)-4,4-difluoro-1-[2-(methylamino)-2-oxo-acetyl]pentyl]-2-[[3-(trifluoromethyl)benzoyl]amino]pyridine-3-carboxamide]	11.7 nM
CNC(=O)C(=O)[C@H](CCC(C)(F)F)NC(=O)c1cc(Cl)ccc1NC(=O)C12CC(C(F)(F)F)(C1)C2 [Example 22, N-[4-chloro-2-[[(1S)-4,4-difluoro-1-[2-(methylamino)-2-oxo-acetyl]pentyl]carbamoyl]phenyl]-3-(trifluoromethyl)bicyclo[1.1.1] pentane-1-carboxamide]	13 nM
CNC(=O)C(=O)[C@H](CCC(C)(F)F)NC(=O)c1cc(Cl)ccc1NC(=O)[C@H]1CC1(F)F [Example 23, 5-chloro-2-[[(1R)-2,2-difluorocyclopropanecarbonyl]amino]-N-[(1S)-4,4-difluoro-1-[2-(methylamino)-2-oxo-acetyl]pentyl]benzamide]	13.2 nM
CNC(=O)C(=O)[C@H](CCC(C)(F)F)NC(=O)c1cc(Cl)cnc1NC(=O)c1cccc(F)c1 [Example 24, 5-chloro-N-[(1S)-4,4-difluoro-1-[2-(methylamino)-2-oxo-acetyl]pentyl]-2-[(3-fluorobenzoyl)amino]pyridine-3-carboxamide]	14 nM
CNC(=O)C(=O)[C@H](CCC(C)(F)F)NC(=O)c1cc(Cl)ccc1NC(=O)[C@@H]1CCc2nccc(=O)n21 [Example 25, (6S)-N-[4-chloro-2-[[(1S)-4,4-difluoro-1-[2-(methylamino)-2-oxo-acetyl]pentyl]carbamoyl]phenyl]-4-oxo-7,8-dihydro-6H-pyrrolo[1,2-a]pyrimidine-6-carboxamide]	14.8 nM
CNC(=O)C(=O)[C@H](CCC(C)(F)F)NC(=O)c1cc(Cl)ccc1NC(=O)C1CC12CCOCC2 (stereo partly drawn) [Example 26, N-[4-chloro-2-[[(1S)-4,4-difluoro-1-[2-(methylamino)-2-oxo-acetyl]pentyl]carbamoyl]phenyl]-6-oxaspiro[2.5]octane-2-carboxamide]	15.1 nM
CC(F)(F)CC[C@H](NC(=O)c1cc(Cl)cnc1NC(=O)C12CC(C(F)(F)F)(C1)C2)C(=O)C(=O)NC1CC1 [Example 27, 5-chloro-N-[(1S)-1-[2-(cyclopropylamino)-2-oxo-acetyl]-4,4-difluoro-pentyl]-2-[[3-(trifluoromethyl)bicyclo[1.1.1]pentane-1-carbonyl]amino]pyridine-3-carboxamide]	17.4 nM
